These are literature values, as cited in patent US20060153940A1, “Use of physiologically active fatty acids” (priority 2004, published 2006).

β-escin: the solubility in alcohol result (alcohol) is recorded as “can be dissolved in alcohol”. Also, where the note is “water”, the solubility in water result is “practically water-insoluble”.
